# Experimental data: patent US12416002B2, “Analysis system for orthogonal access to and tagging of biomolecules in cellular compartments” (ILLUMINA, INC., priority 2016, dated 2025)
# Assays:
# Isolated nuclei [1] = assay: qPCR (Cq) of library yield from nuclei transposed with Nextera Tn5 in presence of Pitstop-2 (Example 4, Table 1A); type: cell-based, human; conditions: for Cq-Pitstop-2: 50,000 nuclei, 25 cy qPCR
# Description: Using a standard cell culture protocol, 1×10^6 K562 cells (human lymphoma cell line) were collected from tissue culture flasks for tagmentation reaction. All cell pelleting/centrifugation steps were performed at 300×g for 3 min at 4° C. Freshly isolated cells were centrifuged and re-suspended in ice cold PBS (phosphate-buffered saline). The cells were pelleted again and incubated on ice while being suspended in 200 μL ice cold cell lysis buffer (Tris/NaCl/octylphenoxypolyethoxyethanol (IGEPAL CA-630 detergent)) for 5 min. Following this, nuclei were spun down for 3 min at 300×g, washed once with 200 of lysis buffer, and pelleted nuclei were transposed with Nextera Tn5 Transposase (TDE1) for 30 min at 55° C. in 1× Tagment DNA buffer (PN:15027866), supplemented with ([…]) or ([…]). Nuclei from each sample were pelleted and most of the supernatant was carefully removed.
# (§1) One Cq value roughly corresponds to two fold difference in DNA Input. […]
# Isolated nuclei [2] = assay: qPCR (Cq) of library yield, varying Pitstop-2 with Tn5 and TsTn5 transposases (Table 1B); type: cell-based, human
# Source text: as §1
# Additional experiments were run using varying concentrations of Pitstop-2 and the Tn5 and TsTn5 transposases.
# nuclei [3] = assay: Flow cytometry of bead capture of FAM-labeled transposed nuclear material (Table 2); type: cell-based
# unpurified nuclei = assay: Yield of ATAC-seq library from unpurified nuclei (Example 8, Table 3); type: cell-based; conditions: for Yield (nM) 150-1000 bp: 3% DMSO
# Description: The concentration of each library was determined on the BioAnalyzer between the library range of 150-1000 bps plotted for each Pitstop-2 concentration (FIG. 7A). Additional experiments run at varying Pitstop-2 concentrations (5, 10, 30, 50, 100, and 200 μM) produced enhanced library yield over libraries produced in the absence of Pitstop-2 as shown by spectrophotometric analysis (Table 3).
# nuclei of K562 cells = assay: Reverse transcription/quantitative PCR of cDNA synthesis from nuclear mRNA (Example 9, Table 4); type: cell-based, human
# Description: Pitstop-2 treatment increases RNA output by improving cDNA synthesis from nuclear mRNA. K562 cells were lysed with 0.1% NP40. The nuclei and cytoplasm were separated and the nuclei were washed twice, then a reverse transcription/quantitative PCR protocol was performed (ThermoFisher Maxima HT RT kit, Kapa qPCR kit, RPLPO PCR primer) with (a) no additive, (b) 0.1% SDS, or (c) 30 μM Pitstop-2. The deltaCt between no reverse transcription and reverse transcription was used as the metric to report relative cDNA synthesis efficiency. Pitstop-2 treatment boosted cDNA synthesis from nuclei 4-5 fold over untreated nuclei (Table 4).
# [4] = tested on: Isolated nuclei of K562 cells; assay: Visualization of FAM-labeled transposome access to nuclei (Example 3, FIG. 3); type: cell-based, human; conditions: Pitstop-2 10 μM, 30 μM, 60 μM vs 2% DMSO control
# Description: Using a standard cell culture protocol, 1×10^6 K562 cells (human lymphoma cell line) were collected from tissue culture flasks for tagmentation reaction. All cell pelleting/centrifugation steps were performed at 300×g for 3 min at 4° C. Freshly isolated cells were centrifuged and re-suspended in ice cold PBS (phosphate-buffered saline). The cells were pelleted again and incubated on ice while being suspended in 200 μL ice cold cell lysis buffer (Tris/NaCl/octylphenoxypolyethoxyethanol (IGEPAL CA-630 detergent)) for 5 min. Following this, nuclei were spun down for 3 min at 300×g, washed once with 200 of lysis buffer, and pelleted nuclei were transposed with Nextera Tn5 Transposase (TDE1) for 30 min at 55° C. in 1× Tagment DNA buffer (PN:15027866), supplemented with (a) Pitstop-2 in DMSO to yield 30 μM final Pitstop-2 concentration (test nuclei) or (b) 2% DMSO (control nuclei). Nuclei from each sample were pelleted and most of the supernatant was carefully removed.
# The method of Example 1 was used to import FAM-labeled transposome complexes into nuclear compartments. Nuclei were isolated and treated as described in Example 1 using Nextera Tn5 transposase complexed with transposon sequence labeled during oligonucleotide synthesis at the 5′-end with FAM (6-FAM, Integrated DNA Technologies), and using the 2% DMSO control, and varying concentrations of Pitstop-2 (10 μM, 30 μM, and 60 μM).
# [5] = tested on: K562 (human lymphoma cell line) nuclear content; assay: Sequencing of transposition (ATAC-seq) libraries from K562 nuclear content (Example 5, FIG. 4); type: cell-based
# Source text: DNA libraries were generated from K562 (human lymphoma cell line) nuclear content using methods as described in the preceding examples. […] As shown in FIG. 4A for the ATAC-seq profile over a portion of Chr 12, the libraries had targeted predominantly intergenic regions at all Pitstop-2 concentrations.
# nuclei [6] = assay: Agarose gel of indexed, amplified libraries of transposed nuclear DNA (Example 6, FIG. 5); type: cell-based; conditions: Pitstop-2 0, 10, 30, 60 μM
# Description: Genomic DNA transposed with Nextera Tn5 Kit in the presence of Pitstop-2 (at concentrations of 0, 10, 30, and 60 μM) as described above was released from nuclei and was captured onto indexed beads containing oligonucleotide capture sequences. Bead-captured DNA was further gap-fill ligated to covalently link both strands of genomic DNA to common sequences (including unique indices) and amplified by PCR. […] Band intensity increases correlated with increases in Pitsthop-2 concentration. Corresponding DNA fragments covered by distinct number of nucleosomes of resulted libraries contained “nucleosomal banding,” indicating successful ATAC-seq tagmentation at regions free of nucleosomes.
# Mouse (3T3) nuclei = assay: Single-cell ATAC-seq in droplets (Example 14, FIG. 11); type: cell-based
# Description: Mouse (3T3) nuclei were treated with 0 μM, 30 μM, and 60 μM Pitstop-2 during cell lysis and transposition of nuclei. Pitstop-2 was used to open up nuclear pores and to allow increased transposition of open chromatin. A defined number of transposed nuclei set to ensure single nuclei occupancy was loaded into a QX200 Bio-Rad droplet generator with indexed beads designed to produce single-cell ATAC-seq libraries. Single cell libraries were PCR-amplified in droplets and then subjected to purification, and sequencing on a NextSeq® 550 Sequencing System.
# Treatment of nuclei with Pitstop-2 allows more efficient transposition and increased unique coverage of open chromatin. In the presence of Pitstop-2, transposases target additional open chromatin regions outside of transcription start sites (TSS) (see FIG. 11B). […] Also observed were an alignment of pooled ATAC-seq reads generated with 0 μM, 30 μM, and 60 μM Pitstop-2 around GAPDH gene at chromosome 6 and an alignment of pooled ATAC-seq reads generated with 0 μM, 30 μM, and 60 μM Pitstop-2 around RPL10 gene at chromosome X (data not shown).
structure (smiles),measurement,setting,value
"O=C1N=C(NS(=O)(=O)c2cccc3ccccc23)SC1=Cc1ccc(Br)cc1 [Pitstop-2, N-[5-(4-bromobenzylidene)-4-oxo-4,5-dihydro-1,3-thiazol-2-yl]naphthalene-1-sulfonamide]",library yield from intact nuclei vs untreated control,Isolated nuclei [1]; Pitstop-2 0 to 80 uM,increases library yield compared to the untreated control
same,ΔCq-Pitstop-2 vs. Control,Isolated nuclei [1]; Pitstop-2 5 uM vs 0.05% DMSO control,−0.2
same,Cq-Pitstop-2,Isolated nuclei [1]; Pitstop-2 5 uM,19.91
same,ΔCq-Pitstop-2 vs. Control,Isolated nuclei [1]; Pitstop-2 10 uM vs 0.10% DMSO control,−0.65
same,Cq-Pitstop-2,Isolated nuclei [1]; Pitstop-2 10 uM,20.00
same,ΔCq-Pitstop-2 vs. Control,Isolated nuclei [1]; Pitstop-2 20 uM vs 0.20% DMSO control,−1.48
same,Cq-Pitstop-2,Isolated nuclei [1]; Pitstop-2 20 uM,19.36
same,ΔCq-Pitstop-2 vs. Control,Isolated nuclei [1]; Pitstop-2 40 uM vs 0.40% DMSO control,−1.26
same,Cq-Pitstop-2,Isolated nuclei [1]; Pitstop-2 40 uM,19.94
same,ΔCq-Pitstop-2 vs. Control,Isolated nuclei [1]; Pitstop-2 80 uM vs 0.80% DMSO control,−2.06
same,Cq-Pitstop-2,Isolated nuclei [1]; Pitstop-2 80 uM,19.24
same,Cq,"Isolated nuclei [2]; Transposome Tn5, Pitstop 50 μM",22.21
same,Cq,"Isolated nuclei [2]; Transposome Tn5, Pitstop 100 μM",23.17
same,Cq,"Isolated nuclei [2]; Transposome Tn5, Pitstop 200 μM",23.105
same,Cq,"Isolated nuclei [2]; Transposome Tn5, Pitstop 300 μM",23.67
same,Cq,"Isolated nuclei [2]; Transposome TsTn5, Pitstop 50 μM",18.32
same,Cq,"Isolated nuclei [2]; Transposome TsTn5, Pitstop 100 μM",18.52
same,Cq,"Isolated nuclei [2]; Transposome TsTn5, Pitstop 200 μM",18.55
same,Cq,"Isolated nuclei [2]; Transposome TsTn5, Pitstop 300 μM",19.475
same,"Mean (MFU), bead capture",nuclei [3]; Pitstop-2 10 μM,1297 MFU
same,"Mean (MFU), bead capture",nuclei [3]; Pitstop-2 30 μM,1439 MFU
same,"Mean (MFU), bead capture",nuclei [3]; Pitstop-2 60 μM,1488 MFU
same,bead capture rates of FAM-labeled transposed libraries,nuclei [3]; Pitstop-2 treatment vs control pools,enhanced bead capture rates over control pools
same,Yield (nM) 150-1000 bp,unpurified nuclei; Pitstop-2 5 μM,7.3 nM
same,Yield (nM) 150-1000 bp,unpurified nuclei; Pitstop-2 10 μM,9.3 nM
same,Yield (nM) 150-1000 bp,unpurified nuclei; Pitstop-2 20 μM,20.6 nM
same,Yield (nM) 150-1000 bp,unpurified nuclei; Pitstop-2 50 μM,23.7 nM
same,Yield (nM) 150-1000 bp,unpurified nuclei; Pitstop-2 100 μM,15.7 nM
same,Yield (nM) 150-1000 bp,unpurified nuclei; Pitstop-2 200 μM,8.7 nM
same,yield of ATAC-seq library on BioAnalyzer,"unpurified nuclei; Pitstop-2 10 and 100 μM, FIG. 7A",increased the yield of an ATAC-seq library
same,boost of cDNA synthesis from nuclei over untreated nuclei,nuclei of K562 cells; 30 μM Pitstop-2,4-5 fold
same,DeltaCt (no reverse transcription vs reverse transcription; relative cDNA synthesis efficiency),nuclei of K562 cells; Nuclei +30 μM Pitstop-2,7.19
same,influx of FAM-labeled transposomes into nuclei,[4],increased influx of FAM-labeled transposomes into the nuclear space
same,"ATAC-seq profile, normalized coverage over promoter and coding regions","[5]; 30 and 60 μM Pitstop-2, FIG. 4C",improved the ATAC-seq profile over controls
same,diversity and uniqueness of whole genome sequencing coverage,"[5]; Pitstop-2-treated samples over controls, FIG. 4B",better diversity and uniqueness
same,access to chromatin regions (sequenced libraries),[5]; Pitstop-2 treatment,enhanced access to transposase-accessible intergenic and open chromatin regions
same,transposition yield by agarose gel electrophoresis,nuclei [6],clear increase in transposition yield
same,"ATAC-seq peak overlap (MACS-2), integrity of the assay","Mouse (3T3) nuclei; 0, 30, 60 μM Pitstop-2, FIG. 11C",did not change the overall integrity of the assay
same,total number of unique reads,"Mouse (3T3) nuclei; increasing Pitstop-2 (0, 30, 60 μM), barcodes >1 k, >10 k, >100 k unique reads, FIG. 11A",increase in the total number of unique reads
"CCCCCCCCCCCCOS(=O)(=O)[O-].[Na+] [SDS, sodium dodecyl sulfate]",DeltaCt (no reverse transcription vs reverse transcription; relative cDNA synthesis efficiency),nuclei of K562 cells; Nuclei +0.1% SDS,2.47
